These compounds were tested against T1, interaction between VCAM-1 and VLA-4 (VLA-4 on human U937 cells / hVCAM-1(1-3)-IgG) (Homo sapiens, UniProt P05556+P13612) (assay: U937/VCAM-1 cell adhesion test: adhesion of U937 cells to hVCAM-1(1-3)-IgG). Settings: inhibition of adhesion of U937 cells (ATCC CRL 1593) to hVCAM-1(1-3)-IgG.
T1 construct: offered in their natural form as surface molecules on human U937 cells; host or cells: U937 cells carry the endogenous VLA-4; The partner hVCAM-1(1-3)-IgG was made in house in transfected COS cells (ATCC CRL1651) and used as culture supernatant
T1 sequence (P13612 34-1032): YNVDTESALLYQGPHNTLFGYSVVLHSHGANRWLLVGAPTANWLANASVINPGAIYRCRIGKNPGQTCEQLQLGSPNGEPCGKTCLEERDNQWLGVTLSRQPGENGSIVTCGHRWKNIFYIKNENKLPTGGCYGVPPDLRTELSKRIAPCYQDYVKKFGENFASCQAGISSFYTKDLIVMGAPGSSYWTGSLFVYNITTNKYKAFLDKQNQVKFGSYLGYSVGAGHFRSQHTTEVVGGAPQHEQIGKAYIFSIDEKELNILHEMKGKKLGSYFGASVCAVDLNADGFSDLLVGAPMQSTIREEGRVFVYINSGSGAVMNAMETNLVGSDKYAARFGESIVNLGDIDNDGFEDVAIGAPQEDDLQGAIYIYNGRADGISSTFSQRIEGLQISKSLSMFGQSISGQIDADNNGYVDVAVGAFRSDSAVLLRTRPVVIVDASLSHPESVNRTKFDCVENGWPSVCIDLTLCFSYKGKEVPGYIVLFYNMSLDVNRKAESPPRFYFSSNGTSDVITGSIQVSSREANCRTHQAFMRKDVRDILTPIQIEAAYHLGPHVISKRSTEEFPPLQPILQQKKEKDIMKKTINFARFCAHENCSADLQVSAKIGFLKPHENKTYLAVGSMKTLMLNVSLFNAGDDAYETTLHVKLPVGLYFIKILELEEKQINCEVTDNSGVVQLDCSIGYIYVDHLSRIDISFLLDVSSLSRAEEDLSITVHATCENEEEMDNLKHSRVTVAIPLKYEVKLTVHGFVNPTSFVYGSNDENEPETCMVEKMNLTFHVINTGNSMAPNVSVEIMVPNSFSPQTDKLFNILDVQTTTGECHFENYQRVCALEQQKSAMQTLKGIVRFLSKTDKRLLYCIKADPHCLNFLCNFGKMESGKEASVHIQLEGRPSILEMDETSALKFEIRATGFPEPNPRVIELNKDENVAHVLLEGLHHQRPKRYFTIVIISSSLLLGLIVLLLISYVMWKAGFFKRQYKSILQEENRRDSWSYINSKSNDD
T1 sequence (P05556 21-798): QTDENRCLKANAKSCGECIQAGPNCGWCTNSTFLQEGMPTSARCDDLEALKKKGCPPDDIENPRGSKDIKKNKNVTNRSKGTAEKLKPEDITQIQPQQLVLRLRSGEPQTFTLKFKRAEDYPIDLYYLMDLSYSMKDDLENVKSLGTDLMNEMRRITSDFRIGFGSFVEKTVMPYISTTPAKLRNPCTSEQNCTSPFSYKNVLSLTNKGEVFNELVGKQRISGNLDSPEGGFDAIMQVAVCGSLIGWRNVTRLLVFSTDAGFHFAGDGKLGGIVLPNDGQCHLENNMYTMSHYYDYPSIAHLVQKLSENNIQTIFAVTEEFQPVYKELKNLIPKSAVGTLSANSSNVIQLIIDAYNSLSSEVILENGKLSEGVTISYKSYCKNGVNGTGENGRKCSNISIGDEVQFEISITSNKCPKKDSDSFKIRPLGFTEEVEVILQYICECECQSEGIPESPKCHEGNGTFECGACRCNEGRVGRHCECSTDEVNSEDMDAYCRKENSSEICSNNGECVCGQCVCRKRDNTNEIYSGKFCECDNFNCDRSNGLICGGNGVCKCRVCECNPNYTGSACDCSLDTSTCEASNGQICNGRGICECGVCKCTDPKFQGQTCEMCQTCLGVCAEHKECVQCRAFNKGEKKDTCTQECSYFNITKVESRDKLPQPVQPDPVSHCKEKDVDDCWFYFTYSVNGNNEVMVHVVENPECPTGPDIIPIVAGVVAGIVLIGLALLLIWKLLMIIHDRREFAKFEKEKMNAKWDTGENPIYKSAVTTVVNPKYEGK
Type: cell-based
Description: As a test method for the activity of the compounds of the formula Ib on the interaction between VCAM-1 and VLA-4, an assay is used which is specific for this interaction. The cellular binding components, i.e. the VLA-4-integrins, are offered in their natural form as surface molecules on human U937 cells (ATCC CRL 1593), which belong to the group of leucocytes. As specific binding components, recombinant soluble fusion proteins prepared by genetic engineering and consisting of the extracytoplasmic domains of human VCAM-1 and the constant region of a human immunoglobulin of the subclass IgG1 are used.
Assay for the measurement of the adhesion of U937 cells (ATCC CRL 1593) to hVCAM-1(1-3)-IgG
1. Preparation of human VCAM-1(1-3)-IgG and human CD4-IgG
A genetic construct for the expression of the extracellular domains of human VCAM-1 was employed, associated with the genetic sequence of the heavy chain of human immunoglobulin IgG-1 (hinge, CH2 and CH3 regions), from Dr. Brian Seed, Massachusetts General Hospital, Boston, USA. The soluble fusion protein hVCAM-1(1-3)-IgG contained the three amino-terminal extracellular immunoglobulin-like domains of human VCAM-1 (Damle and Aruffo, Proc. Natl. Acad. Sci. USA 1991, 88, 6403). CD4-IgG (Zettlmeissl et al., DNA and Cell Biology 1990, 9, 347) served as a fusion protein for negative controls. The recombinant proteins were expressed as soluble proteins after DEAE/dextran-mediated DNA-transfection in COS cells (ATCC CRL1651) according to standard procedures (Ausubel et al., Current protocols in molecular biology, John Wiley & Sons, Inc., 1994).
2. Assay for measurement of the adhesion of U937 cells to hVCAM-1(1-3)-IgG
2.1 96-well microtiter test plates (Nunc Maxisorb) were incubated at room temperature for 1 hour with 100 μl/well of a goat-anti-human IgG antibody solution (10 μg/ml in 50 mM Tris, pH 9.5). After removing the antibody solution, washing was carried out once with PBS.
2.2 150 μl/well of a blocking buffer (1% BSA in PBS) was incubated on the plates at room temperature for 0.5 hours. After removing the blocking buffer, washing was carried out once with PBS.
2.3 100 μl per well of a cell culture supernatant of transfected COS cells were incubated on the plates at room temperature for 1.5 hours. The COS cells were transfected with a plasmid which codes for the three N-terminal immunoglobulin-like domains of VCAM-1, coupled to the Fc part of human IgG1 (hVCAM-1(1-3)-IgG). The content of hVCAM-1(1-3)-IgG was about 0.5-1 μg/ml. After removing the culture supernatant, washing was carried out once with PBS.
2.4 The plates were incubated at room temperature for 20 minutes with 100 μl/well of Fc receptor blocking buffer (1 mg/ml of γ-globulin, 100 mM NaCl, 100 μM MgCl2, 100 μM MnCl2, 100 μM CaCl2, 1 mg/ml BSA in 50 mM HEPES, pH 7.5). After removing the Fc receptor blocking buffer, washing was carried out once with PBS.
2.5 20 μl of binding buffer (100 μM NaCl, 100 μM MgCl2, 100 μM MnCl2, 100 μM CaCl2, 1 mg/ml BSA in 50 mM HEPES, pH 7.5), were initially introduced, the substances to be tested were added in 10 μl of binding buffer and the mixture was incubated for 20 minutes. As controls, antibodies against VCAM-1 (BBT, No. BBA6) and against VLA-4 (Immunotech, No. 0764) were used.
2.6 U937 cells were incubated in Fc receptor blocking buffer for 20 minutes and then pipetted in at a concentration of 1×10^6/ml and in an amount of 100 μl per well ([…]).
2.7 The plates were slowly immersed at an angle of 45° in stop buffer (100 mM NaCl, 100 μM MgCl2, 100 μM MnCl2, 100 μM CaCl2 in 25 mM Tris, pH 7.5) and shaken off. The process was repeated.
2.8 50 μl/well of a dye solution (16.7 μg/ml of Hoechst dye 33258, 4% formaldehyde, 0.5% Triton X-100 in PBS) were then incubated on the plates for 15 minutes.
2.9 The plates were shaken off and slowly immersed at an angle of 45° in stop buffer (100 mM NaCl, 100 μM MgCl2, 100 μM MnCl2, 100 μM CaCl2 in 25 mM tris, pH 7.5). The process was repeated. […]

IC50 [µM] | Compound
30 | CC1(c2ccc(C#N)cc2)C(=O)N(CC(=O)N[C@@H](CC(=O)O)C(=O)N[C@H](C(=O)O)c2ccccc2)C(=O)N1Cc1ccc2ccccc2c1 (stereo partly shown) [Example 1]
14 | CC1(c2ccc(CNC(=O)NCc3ccccc3)cc2)C(=O)N(CC(=O)N[C@@H](CC(=O)O)C(=O)N[C@H](C(=O)O)c2ccccc2)C(=O)N1Cc1ccccc1 (stereo partly drawn) [Example 4, ((R,S)-3-Benzyl-4-(4-(3-benzylureidomethyl)phenyl)-4-methyl-2,5-dioxoimidazolidin-1-yl)acetyl-L-aspartyl-L-phenylglycine]
20 | CC1(c2ccc(CNC(=O)NCCc3ccccc3)cc2)C(=O)N(CC(=O)N[C@@H](CC(=O)O)C(=O)N[C@H](C(=O)O)c2ccccc2)C(=O)N1Cc1ccccc1 (stereo partly drawn) [Example 7, ((R,S)-3-Benzyl-4-methyl-4-(4-(3-(2-phenylethyl)ureidomethyl)phenyl)-2,5-dioxoimidazolidin-1-yl)acetyl-L-aspartyl-L-phenylglycine]
2.8 | Cc1ccccc1NC(=O)Nc1ccc(C2(C)C(=O)N(CC(=O)N[C@@H](CC(=O)O)C(=O)N[C@H](C(=O)O)c3ccccc3)C(=O)N2Cc2ccccc2)cc1 (stereo partly drawn) [Example 3, ((R,S)-3-Benzyl-4-methyl-4-(4-(3-(2-methylphenyl)ureido)phenyl)-2,5-dioxoimidazolidin-1-yl)acetyl-L-aspartyl-L-phenylglycine]
6.5 | Cc1ccccc1NC(=O)NCc1ccc(C2(C)C(=O)N(CC(=O)N[C@@H](CC(=O)O)C(=O)N[C@H](C(=O)O)c3ccccc3)C(=O)N2Cc2ccccc2)cc1 (stereo partly drawn) [Example 6, ((R,S)-3 -Benzyl-4-methyl-4-(4-(3-(2-methylphenyl)ureidomethyl)phenyl)-2,5-dioxoimidazolidin-1-yl)acetyl-L-aspartyl-L-phenylglycine]
27.7 | CC1(c2ccc([N+](=O)[O-])cc2)C(=O)N(CC(=O)N[C@@H](CC(=O)O)C(=O)N[C@H](C(=O)O)c2ccccc2)C(=O)N1Cc1ccccc1 (stereo partly drawn) [Example 2, ((R,S)-3 -Benzyl-4-methyl-4-(4-nitrophenyl)-2,5-dioxoimidazolidin-1-yl)acetyl-L-aspartyl-L-phenylglycine]
9 | CC1(c2ccc(CNC(=O)Nc3ccccc3)cc2)C(=O)N(CC(=O)N[C@@H](CC(=O)O)C(=O)N[C@H](C(=O)O)c2ccccc2)C(=O)N1Cc1ccccc1 (mixture of isomers) [Example 5, ((RS)-3-Benzyl-4-methyl-4-(4-(3-phenylureidomethyl)phenyl)-2,5-dioxoimidazolidin-1-yl)acetyl-L-aspartyl-L-phenylglycine]
